Measured values as given in ChEMBL document CHEMBL4011656, “Discovery and Optimization of Chromeno[2,3-c]pyrrol-9(2H)-ones as Novel Selective and Orally Bioavailable Phosphodiesterase 5 Inhibitors for the Treatment of Pulmonary Arterial Hypertension” (J Med Chem, 2017).
Activity calls are given as the source filed them. The rule behind the calls is not given here.

What was measured:
[1] = Half life in Sprague-Dawley rat at 5 mg/kg, po by LC-MS/MS analysis; assay type: ADME, organism-based; conditions: in vivo
[2] = Half life in Sprague-Dawley rat at […], iv by LC-MS/MS analysis; assay type: ADME, organism-based; conditions: in vivo
[3] = Tmax in Sprague-Dawley rat at 5 mg/kg, po by LC-MS/MS analysis; assay type: ADME, organism-based; conditions: in vivo
[4] = Cmax in Sprague-Dawley rat at 5 mg/kg, po by LC-MS/MS analysis; assay type: ADME, organism-based; design: dose 5 mg/kg, route oral; conditions: in vivo
[5] = AUC (0 to t) in Sprague-Dawley rat at […], iv by LC-MS/MS analysis; assay type: ADME, organism-based; conditions: in vivo
[6] = AUC (0 to infinity) in Sprague-Dawley rat at 5 mg/kg, po by LC-MS/MS analysis; assay type: ADME, organism-based; design: dose 5 mg/kg, time infinity, route oral; conditions: in vivo
[7] = AUC (0 to infinity) in Sprague-Dawley rat at […], iv by LC-MS/MS analysis; assay type: ADME, organism-based; design: dose 2.5 mg/kg, time infinity, route intravenous; conditions: in vivo
[8] = MRT (0 to t) in Sprague-Dawley rat at 5 mg/kg, po by LC-MS/MS analysis; assay type: ADME, organism-based; conditions: in vivo
[9] = MRT (0 to t) in Sprague-Dawley rat at […], iv by LC-MS/MS analysis; assay type: ADME, organism-based; conditions: in vivo
[10] = molecular target: Dual specificity calcium/calmodulin-dependent 3',5'-cyclic nucleotide phosphodiesterase 1B (Homo sapiens, UniProt Q01064); test: Inhibition of PDE1B (10 to 487 residues) (unknown origin) expressed in Escherichia coli BL21(DE3) using [3H]cAMP or [3H]cGMP as substrate after 15 mins by liquid scintillation counting method
[11] = molecular target: cGMP-dependent 3',5'-cyclic phosphodiesterase (Homo sapiens, UniProt O00408); test: Inhibition of PDE2A (580 to 919 residues) (unknown origin) expressed in Escherichia coli BL21(DE3) using [3H]cGMP or [3H]cAMP as substrate after 15 mins by liquid scintillation counting method
[12] = molecular target: 3',5'-cyclic-AMP phosphodiesterase 4D (Homo sapiens, UniProt Q08499); test: Inhibition of PDE4D2 (86 to 413 residues) (unknown origin) expressed in Escherichia coli BL21(DE3) using [3H]cAMP or [3H]cGMP as substrate after 15 mins by liquid scintillation counting method
[13] = molecular target: Rod cGMP-specific 3',5'-cyclic phosphodiesterase subunit alpha (Homo sapiens, UniProt P16499); test: Inhibition of PDE6A (484 to 817 residues) (unknown origin) expressed in Escherichia coli BL21(DE3) using [3H]cGMP or [3H]cAMP as substrate after 15 mins by liquid scintillation counting method
[14] = molecular target: High affinity 3',5'-cyclic-AMP phosphodiesterase 7A (Homo sapiens, UniProt Q13946); test: Inhibition of PDE7A1 (130 to 482 residues) (unknown origin) expressed in Escherichia coli BL21(DE3) using [3H]cGMP or [3H]cAMP as substrate after 15 mins by liquid scintillation counting method
[15] = molecular target: High affinity cGMP-specific 3',5'-cyclic phosphodiesterase 9A (Homo sapiens, UniProt O76083); test: Inhibition of PDE9A2 (181 to 506 residues) (unknown origin) expressed in Escherichia coli BL21(DE3) using [3H]cGMP or [3H]cAMP as substrate after 15 mins by liquid scintillation counting method
[16] = molecular target: cAMP and cAMP-inhibited cGMP 3',5'-cyclic phosphodiesterase 10A (Homo sapiens, UniProt Q9Y233); test: Inhibition of PDE10A (449 to 770 residues) (unknown origin) expressed in Escherichia coli BL21(DE3) using [3H]cGMP or [3H]cAMP as substrate after 15 mins by liquid scintillation counting method
[17] = Apparent clearance in rat liver microsomes at 0.5 uM; assay type: ADME, microsome; conditions: read-out: CLH(app)
[18] = Hepatic clearance in rat liver microsomes at 0.5 uM; assay type: ADME, microsome
Cytochrome P450 2C8 = molecular target: T1, Cytochrome P450 2C8 (Homo sapiens, UniProt P10632); test: Inhibition of CYP2C8 in human microsomes in presence of NADPH; assay type: ADME
T1 sequence (P10632 whole entry): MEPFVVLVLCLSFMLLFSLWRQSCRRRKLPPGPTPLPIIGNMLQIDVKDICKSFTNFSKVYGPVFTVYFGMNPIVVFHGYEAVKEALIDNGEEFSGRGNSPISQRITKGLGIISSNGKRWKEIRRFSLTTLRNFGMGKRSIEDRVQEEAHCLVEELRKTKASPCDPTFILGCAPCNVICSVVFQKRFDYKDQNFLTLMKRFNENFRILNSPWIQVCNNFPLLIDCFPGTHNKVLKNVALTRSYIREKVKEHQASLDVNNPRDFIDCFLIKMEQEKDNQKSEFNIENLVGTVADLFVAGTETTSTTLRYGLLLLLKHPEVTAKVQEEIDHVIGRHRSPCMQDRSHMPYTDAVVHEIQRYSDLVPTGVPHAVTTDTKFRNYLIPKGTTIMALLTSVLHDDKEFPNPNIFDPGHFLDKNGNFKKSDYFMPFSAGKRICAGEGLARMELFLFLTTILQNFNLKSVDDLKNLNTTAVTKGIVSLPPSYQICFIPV

Cytochrome P450 2C9 = Cytochrome P450 2C9 (Homo sapiens, UniProt P11712); test: Inhibition of CYP2C9 in human microsomes in presence of NADPH; assay type: ADME
Cytochrome P450 3A4 = Cytochrome P450 3A4 (Homo sapiens, UniProt P08684); test: Inhibition of CYP3A4 in human microsomes in presence of NADPH; assay type: ADME
[19] = Acute toxicity in Kunming mouse administered as single oral dose measured up to 2 weeks post dose; conditions: in vivo
Mus musculus [20] = test: Acute toxicity in Kunming mouse assessed as poisoning symptoms at 1000 to 1500 mg/kg, po administered as single dose measured up to 2 weeks post dose; assay type: organism-based; conditions: in vivo, 336 h
Mus musculus [21] = test: Acute toxicity in Kunming mouse assessed as mortality at 1000 to 1500 mg/kg, po administered as single dose measured up to 2 weeks post dose; assay type: organism-based; conditions: in vivo, 336 h
Mus musculus [22] = test: Acute toxicity in Kunming mouse assessed as effect on water consumption at 1000 to 1500 mg/kg, po administered as single dose measured up to 2 weeks post dose; assay type: organism-based; conditions: in vivo, 336 h
Mus musculus [23] = test: Acute toxicity in Kunming mouse assessed as effect on food consumption at 1000 to 1500 mg/kg, po administered as single dose measured up to 2 weeks post dose; assay type: organism-based; conditions: in vivo, 336 h
Rattus norvegicus [24] = test: Toxicity in Sprague-Dawley rat assessed as overt toxicity up to 300 mg/kg, po daily for 2 weeks; assay type: organism-based; conditions: in vivo, 336 h
Rattus norvegicus [25] = test: Reduction in MCT-induced increase in mean pulmonary arterial pressure in Wistar rat model of monocrotaline pulmonary arterial hypertension assessed as mean pulmonary arterial pressure at 5 mg/kg, po for 3 weeks (reference value: 32.74 mmHg); assay type: functional
Rattus norvegicus [26] = test: Reduction in MCT-induced increase in right ventricle hypertrophy index in Wistar rat model of monocrotaline pulmonary arterial hypertension at 5 mg/kg, po for 3 weeks; assay type: functional, organism-based
Rattus norvegicus [27] = test: Inhibition of hypertrophic response in Wistar rat model of monocrotaline pulmonary arterial hypertension assessed as reduction of MCT-induced increase in small pulmonary artery wall thickness at 5 mg/kg, po for 3 weeks; assay type: functional, organism-based
Liver = test: Drug metabolism in human liver microsomes assessed as metabolic rate; assay type: ADME, microsome

Chain of High affinity 3',5'-cyclic-AMP phosphodiesterase 7A (Q13946 whole entry, the tested form may be a part): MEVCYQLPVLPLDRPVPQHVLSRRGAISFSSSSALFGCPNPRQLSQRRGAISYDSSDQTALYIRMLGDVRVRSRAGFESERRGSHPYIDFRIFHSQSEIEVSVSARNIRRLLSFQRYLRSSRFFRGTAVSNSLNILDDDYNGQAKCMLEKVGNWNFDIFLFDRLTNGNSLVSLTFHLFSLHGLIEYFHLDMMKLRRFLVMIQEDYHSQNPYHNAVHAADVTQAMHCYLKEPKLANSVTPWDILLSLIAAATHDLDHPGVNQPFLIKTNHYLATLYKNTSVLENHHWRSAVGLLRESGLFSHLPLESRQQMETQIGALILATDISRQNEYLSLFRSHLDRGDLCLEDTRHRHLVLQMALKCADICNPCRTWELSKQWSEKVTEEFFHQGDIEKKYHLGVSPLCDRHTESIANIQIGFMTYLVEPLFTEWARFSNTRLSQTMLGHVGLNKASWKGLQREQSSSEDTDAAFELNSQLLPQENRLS
Chain of Cytochrome P450 3A4 (P08684 whole entry): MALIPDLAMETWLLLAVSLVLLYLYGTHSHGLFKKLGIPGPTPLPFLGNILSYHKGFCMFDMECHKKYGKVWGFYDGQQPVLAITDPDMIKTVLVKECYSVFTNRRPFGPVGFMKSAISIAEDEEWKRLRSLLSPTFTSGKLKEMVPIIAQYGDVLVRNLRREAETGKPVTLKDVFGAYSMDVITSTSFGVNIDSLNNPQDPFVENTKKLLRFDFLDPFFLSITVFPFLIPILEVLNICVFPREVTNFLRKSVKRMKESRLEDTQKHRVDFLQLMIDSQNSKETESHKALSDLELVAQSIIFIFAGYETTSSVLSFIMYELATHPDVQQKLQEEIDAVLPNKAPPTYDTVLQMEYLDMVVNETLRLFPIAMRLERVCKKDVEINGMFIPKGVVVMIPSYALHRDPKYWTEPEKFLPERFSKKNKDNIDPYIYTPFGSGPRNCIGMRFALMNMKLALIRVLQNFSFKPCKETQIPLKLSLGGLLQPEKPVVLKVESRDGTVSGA
Chain of 3',5'-cyclic-AMP phosphodiesterase 4D (Q08499 whole entry, the tested form may be a part): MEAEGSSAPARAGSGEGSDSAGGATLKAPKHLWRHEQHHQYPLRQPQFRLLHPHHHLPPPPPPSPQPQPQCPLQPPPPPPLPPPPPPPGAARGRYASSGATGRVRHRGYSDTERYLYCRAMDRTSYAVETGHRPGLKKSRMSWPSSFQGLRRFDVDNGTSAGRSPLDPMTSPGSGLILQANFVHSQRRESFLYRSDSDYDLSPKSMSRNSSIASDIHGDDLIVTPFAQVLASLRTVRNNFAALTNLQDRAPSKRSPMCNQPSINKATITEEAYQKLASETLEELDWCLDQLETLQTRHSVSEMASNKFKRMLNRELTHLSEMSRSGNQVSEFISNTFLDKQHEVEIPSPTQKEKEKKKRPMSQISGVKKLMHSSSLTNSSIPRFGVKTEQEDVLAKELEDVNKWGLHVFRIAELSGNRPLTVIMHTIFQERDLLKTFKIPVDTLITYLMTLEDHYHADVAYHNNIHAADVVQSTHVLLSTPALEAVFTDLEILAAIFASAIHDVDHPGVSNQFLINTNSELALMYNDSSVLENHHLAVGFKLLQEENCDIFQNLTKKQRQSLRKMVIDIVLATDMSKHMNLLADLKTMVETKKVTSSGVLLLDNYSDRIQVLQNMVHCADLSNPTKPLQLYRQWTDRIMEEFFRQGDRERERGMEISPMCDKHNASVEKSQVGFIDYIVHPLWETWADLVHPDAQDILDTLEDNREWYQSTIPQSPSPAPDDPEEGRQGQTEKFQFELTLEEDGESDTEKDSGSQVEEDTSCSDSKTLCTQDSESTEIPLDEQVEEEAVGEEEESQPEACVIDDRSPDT
Chain of cAMP and cAMP-inhibited cGMP 3',5'-cyclic phosphodiesterase 10A (Q9Y233 whole entry, the tested form may be a part): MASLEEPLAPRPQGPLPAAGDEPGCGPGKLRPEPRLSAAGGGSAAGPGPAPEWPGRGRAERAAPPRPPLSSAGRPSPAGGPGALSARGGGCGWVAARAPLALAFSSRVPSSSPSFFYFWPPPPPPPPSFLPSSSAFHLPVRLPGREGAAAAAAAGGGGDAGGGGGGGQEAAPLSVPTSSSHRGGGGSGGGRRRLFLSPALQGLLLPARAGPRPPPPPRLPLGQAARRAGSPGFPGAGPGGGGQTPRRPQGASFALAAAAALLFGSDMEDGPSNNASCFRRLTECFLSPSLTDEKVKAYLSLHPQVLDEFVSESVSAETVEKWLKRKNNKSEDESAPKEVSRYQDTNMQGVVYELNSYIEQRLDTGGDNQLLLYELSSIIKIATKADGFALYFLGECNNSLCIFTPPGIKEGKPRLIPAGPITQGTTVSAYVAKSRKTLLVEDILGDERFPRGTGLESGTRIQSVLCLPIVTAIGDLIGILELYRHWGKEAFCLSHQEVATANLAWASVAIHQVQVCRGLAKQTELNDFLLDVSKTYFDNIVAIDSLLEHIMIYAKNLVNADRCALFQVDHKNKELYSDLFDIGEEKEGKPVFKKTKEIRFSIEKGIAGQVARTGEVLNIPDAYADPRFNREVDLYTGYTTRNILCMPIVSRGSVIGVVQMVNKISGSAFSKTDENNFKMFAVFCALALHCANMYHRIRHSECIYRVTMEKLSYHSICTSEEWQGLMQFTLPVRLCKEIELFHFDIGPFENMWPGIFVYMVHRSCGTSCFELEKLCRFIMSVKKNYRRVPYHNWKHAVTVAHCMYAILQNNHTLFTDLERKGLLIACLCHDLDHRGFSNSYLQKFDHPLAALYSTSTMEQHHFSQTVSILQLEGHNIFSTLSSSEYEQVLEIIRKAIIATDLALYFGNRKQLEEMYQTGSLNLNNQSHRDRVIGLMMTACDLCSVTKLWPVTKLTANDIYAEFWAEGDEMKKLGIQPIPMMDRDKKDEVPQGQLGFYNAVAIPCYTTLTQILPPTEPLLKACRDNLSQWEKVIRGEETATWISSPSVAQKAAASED
Chain of High affinity cGMP-specific 3',5'-cyclic phosphodiesterase 9A (O76083 whole entry, the tested form may be a part): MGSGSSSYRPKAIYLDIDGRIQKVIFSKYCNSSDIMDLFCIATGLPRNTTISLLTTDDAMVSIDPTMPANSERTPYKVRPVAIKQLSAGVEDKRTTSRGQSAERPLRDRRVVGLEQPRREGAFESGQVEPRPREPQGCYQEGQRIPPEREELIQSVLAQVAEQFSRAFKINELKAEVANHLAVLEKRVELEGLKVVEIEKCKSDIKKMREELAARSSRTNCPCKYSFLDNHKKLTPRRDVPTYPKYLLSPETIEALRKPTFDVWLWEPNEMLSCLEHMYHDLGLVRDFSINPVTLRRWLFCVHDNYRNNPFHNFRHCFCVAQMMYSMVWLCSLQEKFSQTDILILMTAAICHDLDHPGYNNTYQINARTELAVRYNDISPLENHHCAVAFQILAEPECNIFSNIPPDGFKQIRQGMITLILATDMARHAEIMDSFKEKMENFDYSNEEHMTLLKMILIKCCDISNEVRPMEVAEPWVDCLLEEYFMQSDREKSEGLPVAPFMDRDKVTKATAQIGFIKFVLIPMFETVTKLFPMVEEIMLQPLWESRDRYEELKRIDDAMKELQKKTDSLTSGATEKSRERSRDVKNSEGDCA
Chain of cGMP-dependent 3',5'-cyclic phosphodiesterase (O00408 whole entry, the tested form may be a part): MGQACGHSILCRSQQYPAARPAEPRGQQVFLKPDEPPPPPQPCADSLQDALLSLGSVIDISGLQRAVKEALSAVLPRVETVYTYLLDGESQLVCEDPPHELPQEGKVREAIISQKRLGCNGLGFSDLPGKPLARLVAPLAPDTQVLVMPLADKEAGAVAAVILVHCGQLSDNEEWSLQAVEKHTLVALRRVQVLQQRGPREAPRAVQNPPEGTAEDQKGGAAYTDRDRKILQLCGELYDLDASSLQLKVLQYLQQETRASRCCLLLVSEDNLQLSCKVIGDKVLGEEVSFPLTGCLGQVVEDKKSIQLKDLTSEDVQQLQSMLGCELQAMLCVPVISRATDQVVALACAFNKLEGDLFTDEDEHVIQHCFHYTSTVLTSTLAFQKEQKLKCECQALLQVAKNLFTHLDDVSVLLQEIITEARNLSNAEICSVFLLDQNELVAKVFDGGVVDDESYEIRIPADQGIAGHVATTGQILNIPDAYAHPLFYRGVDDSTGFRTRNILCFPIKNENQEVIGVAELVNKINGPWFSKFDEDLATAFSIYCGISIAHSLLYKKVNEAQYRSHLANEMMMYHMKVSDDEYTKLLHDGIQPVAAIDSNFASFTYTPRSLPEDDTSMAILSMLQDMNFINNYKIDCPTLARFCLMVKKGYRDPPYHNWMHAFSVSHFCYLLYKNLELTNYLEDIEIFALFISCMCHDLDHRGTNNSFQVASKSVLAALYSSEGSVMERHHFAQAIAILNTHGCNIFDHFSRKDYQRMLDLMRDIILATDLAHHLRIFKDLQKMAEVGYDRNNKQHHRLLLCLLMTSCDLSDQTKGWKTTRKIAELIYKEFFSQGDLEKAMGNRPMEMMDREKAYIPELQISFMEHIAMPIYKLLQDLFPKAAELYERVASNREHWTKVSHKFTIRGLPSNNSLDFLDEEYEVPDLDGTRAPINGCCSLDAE
Chain of Cytochrome P450 2C9 (P11712 whole entry): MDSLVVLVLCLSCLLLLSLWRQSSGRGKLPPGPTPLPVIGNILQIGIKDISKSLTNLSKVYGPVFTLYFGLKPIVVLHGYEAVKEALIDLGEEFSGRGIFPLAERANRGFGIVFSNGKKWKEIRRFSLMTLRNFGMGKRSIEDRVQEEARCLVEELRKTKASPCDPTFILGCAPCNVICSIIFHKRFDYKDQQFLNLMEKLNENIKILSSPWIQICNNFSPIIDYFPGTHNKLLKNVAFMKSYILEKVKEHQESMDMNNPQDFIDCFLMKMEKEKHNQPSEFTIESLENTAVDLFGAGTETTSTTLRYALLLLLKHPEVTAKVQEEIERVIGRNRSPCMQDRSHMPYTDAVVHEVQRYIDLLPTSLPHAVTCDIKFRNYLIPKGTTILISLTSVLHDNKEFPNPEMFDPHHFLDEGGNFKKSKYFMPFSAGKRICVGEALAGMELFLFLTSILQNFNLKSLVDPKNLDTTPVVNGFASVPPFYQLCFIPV

O=c1c2ccccc2oc2c(Cc3ccc4c(c3)OCO4)[nH]c(-c3nccs3)c12
half-life [1]: 5.17 h | half-life [2]: 6.02 h | Tmax [3]: 4 h | Cmax [4]: 368 ng/mL | AUC(0-t) [5]: 1700 ng·h/mL | AUC(0-inf) [6]: 2030 ng·h/mL | AUC(0-inf) [7]: 1730 ng·h/mL | MRT last [8]: 4.76 h | MRT last [9]: 2.14 h | IC50 [10]: > 10 µM | IC50 [11]: 0.362 µM | IC50 [12]: 2.77 µM | IC50 [13]: 0.058 µM | IC50 [14]: > 10 µM | IC50 [15]: > 10 µM | IC50 [16]: 0.153 µM | CLint scaled at 0.5 µM [17]: 101 mL/min/kg | CLhep predicted at 0.5 µM [18]: 35.6 mL/min/kg | IC50 (Cytochrome P450 2C8): > 25 µM | IC50 (Cytochrome P450 2C9): > 25 µM | IC50 (Cytochrome P450 3A4): > 25 µM | MTD at 336 h [19]: > 1500 mg/kg | Activity (Mus musculus [20]): Non-Toxic | Activity (Mus musculus [21]): Non-Toxic | Activity (Mus musculus [22]): Non-Toxic | Activity (Mus musculus [23]): Non-Toxic | Activity (Rattus norvegicus [24]): Non-Toxic | Activity (Rattus norvegicus [25]): 18.65 mmHg | Activity (Rattus norvegicus [26]): Active | inhibition (Rattus norvegicus [27]): Active | K (Liver): 0.0124
